# Reference: patent publication US4496551A (priority 1983, dated 1985)
# Assays:
# [1] = tested on: Puccinia recondita var. tritici; assay: wheat leaf rust control on wheat seedlings; type: in vivo; settings: for pest or weed control at 100 ppm: sprayed day before inoculation
# How it was run: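 Compounds at 100 ppm (6% acetone, 250 ppm polyhydric alcohol ester surfactant in water) sprayed to run-off on wheat seedlings; inoculated next day with P. recondita spores. Kept 24 h at saturated humidity, 20°, then 7 days in growth room before rust pustule rating.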
# Erysiphe cichoracearum = assay: cucumber powdery mildew control on cucumber seedlings; type: in vivo; settings: Golovinomyces cichoracearum, 168 h, 7 days
# How it was run: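 Compounds at 100 ppm in water with 6% acetone and 250 ppm TREM 014 surfactant, sprayed to run-off on cucumber seedlings. Inoculation with Erysiphe cichoracearum spores the following day; disease rated after 7 days in a growth room against untreated plants.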
# Venturia inaequalis = assay: apple scab control on apple seedlings; type: in vivo; settings: Venturia inaequalis; 100 ppm
# How it was run: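 Apple seedlings sprayed to run-off with 100 ppm compound suspension (6% acetone, 250 ppm TREM 014 surfactant). Inoculated next day with Venturia inaequalis spores; 24 hours at 20° in saturated humidity, then 10-12 days in growth room. Scab lesions compared with untreated plants.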
# Helminthosporium maydis = assay: southern corn leaf blight control on corn seedlings; type: in vivo; settings: Bipolaris maydis, 168 h
# How it was run: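 Corn seedlings were sprayed to run-off with 100 ppm compound (6% acetone, 250 ppm TREM 014), inoculated next day with H. maydis spores, then kept 24 h at 20° in saturated humidity and 7 more days in a growth room. Lesions were rated as disease score.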
# Cercospora arachidicola = assay: peanut early leafspot control on peanut seedlings; type: in vivo; settings: Mycosphaerella arachidis, 336 h
# How it was run: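 Compounds dissolved in acetone (6% of final volume) and suspended at 100 ppm in water with 250 ppm TREM 014, sprayed to run-off on seedlings. Cercospora arachidicola inoculated next day; 24 h saturated humidity at 27°, then 14 days growth room before disease and leafspot rating.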
# Monilinia fructicola = assay: stone fruit brown rot colony growth inhibition on canned peach halves; type: cell-based; settings: 120 h, dipped 3 minutes, five days, percent growth inhibition of colonies, read-out: % Control Brown Rot
# Excerpt: Several compounds of the previous examples were again dissolved in acetone in an amount equal to 5% of the final volume and then suspended at a concentration of 100 ppm in purified water containing 700 ppm of the surfactant TREM 014 (polyhydric alcohol esters). Canned peach halves were dipped in this suspension for three minutes and then placed to air dry in sterile containers. Upon drying, the peach halves were inoculated with two pieces of Monilinia fructicola, causal agent of stone fruit brown rot, mycelium and then incubated in the sterile containers for five days. At that time the radii of the colonies' growth were measured on each peach. […] Percent disease contol (percent growth inhibition of colonies on treated peaches as compared to that of colonies on untreated peaches) is expressed in the table below.
# Rhizoctonia solani = assay: rice sheath blight control on rice seedlings; type: in vivo; settings: Rhizoctonia solani, 168 h, 7 days
# How it was run: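 Rice seedlings sprayed to run-off with 100 ppm compound suspension (6% acetone, 250 ppm surfactant), then inoculated next day with bran/mycelium of Rhizoctonia solani. After 7 days in a growth room, sheath blight disease was rated.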
# Pyricularia oryzae = assay: whole plant or invertebrate; type: in vivo; settings: 168 h, read-out: % Control of Rice Blast
# Phytophthora infestans = assay: whole plant or invertebrate; type: in vivo; settings: Phytophthora infestans, in Solanum lycopersicum, 168 h, read-out: % Control of Tomato Late Blight
# 5 Phytophthora species = type: cell-based; settings: 200.0 ppm in agar, 22° C., 6 days; controlled = radial growth 1 mm or less
# Erysiphe graminis = assay: barley powdery mildew control on barley seedlings; type: in vivo; settings: Blumeria graminis, 168 h; for pest or weed control at 100 ppm: 7 days
# Experimental: Several compounds of the previous examples were again dissolved in acetone in an amount equal to 6% of the final volume and then suspended at a concentration of 100 ppm in purified water containing 250 ppm of the surfactant TREM 014 (polyhydric alcohol esters). This suspension was sprayed to the point of run-off on barley seedlings. The following day, the plants were inoculated with a spore suspension of the fungus Erysiphe graminis, causal agent of barley powdery mildew, and incubated in a growth room for 7 days. Disease ratings were then made. Treated plants had little or no powdery mildew in contrast to untreated plants which were covered with powdery mildew.
# cucumber seedlings = assay: phytotoxicity on cucumber seedlings; type: in vivo; set-up: key: G: growth reduction; H: hormonal effects; settings: 100 ppm
# apple seedlings = assay: phytotoxicity on apple seedlings; type: in vivo; set-up: key: B: Phytotoxic burn; settings: 100 ppm
# Experimental: Compounds of this invention were dissolved in acetone in an amount equal to 6% of the final volume and then suspended at a concentration of 100 ppm in purified water containing 250 ppm of the surfactant TREM 014 (polyhydric alcohol esters). This suspension was sprayed to the point of run-off on apple seedlings. The following day, the plants were inoculated with a spore suspension of the fungus Venturia inaequalis, causal agent of apple scab, and incubated in a saturated humidity chamber at 20° for 24 hours and then in a growth room for an additional 10-12 days. Treated plants from successful treatments had few or no apple scab lesions when compared to untreated plants which were covered with scab lesions.
# Pythium aphanadermatum [2] = assay: Pythium control on coated cotton seeds; type: in vivo; settings: 168 h; for pest or weed control at 2000 mg/kg: 2 gm/kg seed, 1 week
# Excerpt: Several compounds of the previous examples were incorporated into a proprietary formulation and used to coat cotton seeds at a rate of 2 gm/kg seed. After being thoroughly coated, the seeds were allowed to air dry at room temperature. The cotton seeds were then planted into soil amended with the fungus Pythium aphanadermatum, sand, and corn meal at a rate sufficient to kill most untreated seeds. The seeds were held at room temperature for 1 week, after which time disease ratings were made.
# Pythium aphanadermatum [3] = assay: Pythium control on coated corn seeds; type: in vivo; settings: 504 h, 2 gm/kg seed, 49° F. 2 weeks then 70° F. 1 week
# Experimental: Several compounds of the previous examples were incorporated into a proprietary formulation and used to coat corn seeds at a rate of 2 gm/kg seed. After being thoroughly coated, the seeds were allowed to air dry at room temperature. The seeds were then planted into soil amended with a mixture of the fungus Pythium aphanadermatum, sand, and corn meal at a rate sufficient to kill most untreated seeds. The seeds were held at 49° F. for 2 weeks and then at 70° F. for 1 additional week. After this time disease ratings were made.
SMILES,pest or weed control at 100 ppm [1],pest or weed control at 100 ppm (Erysiphe cichoracearum),pest or weed control at 100 ppm (Venturia inaequalis),pest or weed control at 100 ppm (Helminthosporium maydis),pest or weed control at 100 ppm (Cercospora arachidicola),inhibition of growth at 100 ppm (Monilinia fructicola),pest or weed control at 100 ppm (Rhizoctonia solani),pest or weed control at 100 ppm (Pyricularia oryzae),pest or weed control at 100 ppm (Phytophthora infestans),No. of 5 Phytophthora species controlled in vitro (5 Phytophthora species),pest or weed control at 100 ppm (Erysiphe graminis),Phytotoxicity (growth reduction or hormonal effects) (cucumber seedlings),Phytotoxic burn (apple seedlings),pest or weed control at 2000 mg/kg (Pythium aphanadermatum [2]),pest or weed control at 2000 mg/kg (Pythium aphanadermatum [3]),pest or weed control at 400 ppm ([1]; 400 ppm),pest or weed control at 200 ppm (Erysiphe graminis; 200 ppm),pest or weed control at 500 mg/kg (Pythium aphanadermatum [2]; 0.5 gm/kg seed)
C[Si](Cn1ccnc1)(c1ccccc1)c1ccc(Cl)cc1 (centres unmarked) [(4-Chlorophenyl)(1H-imidazol-1-ylmethyl)methyl(phenyl)silane],100%,100%,100%,0%,100%,45%,0%,0%,0%,0,–,–,–,–,–,–,–,–
COc1ccc([Si](C)(C)Cn2ccnc2)cc1 [Dimethyl(1H-imidazol-1-ylmethyl)(4-methoxyphenyl)silane],60%,100%,0%,0%,0%,–,0%,0%,0%,0,100%,–,–,–,–,–,–,–
C[Si](C)(Cn1ccnc1)C1CCCCC1 [Cyclohexyl(dimethyl(1H-imidazol-1-ylmethyl)silane],0%,100%,100%,50%,0%,–,0%,–,–,–,–,G,B,–,–,–,–,–
C[Si](Cn1ccnc1)(c1ccccc1)c1ccc(F)cc1 (centres unmarked) [(4-Fluorophenyl)(1H-imidazol-1-ylmethyl)methyl(phenyl)silane],0%,100%,100%,80%,100%,65%,90%,100%,0%,2,–,–,–,–,–,–,–,–
"CCCC[Si](C)(Cn1ccnc1)c1ccc(Cl)cc1Cl (centres unmarked) [Butyl(2,4-dichlorophenyl)(1H-imidazol-1-ylmethyl)methylsilane]",100%,100%,100%,80%,100%,–,90%,0%,0%,–,–,G,B,–,–,–,–,–
C[Si](C)(Cn1ccnc1)c1ccc(Oc2ccccc2)cc1 [(1H-Imidazol-1-ylmethyl)dimethyl(4-phenoxyphenyl)silane],60%,100%,100%,0%,0%,80%,70%,70%,80%,4,0%,–,–,0%,5%,–,–,–
CCCCCCCCCCCC[Si](C)(C)Cn1ccnc1 [Dodecyl(dimethyl)(1H-imidazol-1-ylmethyl)silane],–,55%,0%,0%,–,–,–,–,–,–,–,–,B,–,–,80%,100%,–
C[Si](Cn1ccnc1)(c1ccc(F)cc1)c1ccc(F)cc1 [bis(4-Fluorophenyl)(1H-imidazol-1-ylmethyl)methylsilane],100%,100%,100%,60%,100%,–,90%,0%,0%,0,–,–,–,–,–,–,–,–
"C[Si](C)(Cn1ccnc1)c1ccc(Cl)c(Cl)c1 [(3,4-Dichlorophenyl)(1H-imidazol-1-ylmethyl)dimethylsilane]",0%,100%,80%,70%,0%,–,0%,0%,0%,–,80%,–,–,–,30%,–,–,15%
C[Si](C)(Cn1ccnc1)c1ccc(Oc2ccc(Cl)cc2)cc1 [[4-(4-Chlorophenoxy)phenyl]dimethyl(1H-imidazol-1-ylmethyl)silane],90%,100%,0%,0%,0%,–,70%,100%,0%,0,–,–,–,–,0%,–,–,–
CCCC[Si](C)(Cn1ccnc1)c1ccc(Cl)cc1 (centres unmarked) [Butyl(4-chlorophenyl)(1H-imidazol-1-ylmethyl)methylsilane],90%,100%,90%,50%,0%,45%,0%,0%,0%,–,100%,G,–,0%,0%,–,–,–
